Assay results reported in a compilation of properties of binary mixtures (doi:10.1016/j.jct.2022.106909).

Assay: xn = mol fraction of the nth substance listed
Details: 100 kPa

What does the source list for `CCC(=O)[O-].C[n+]1ccn(CCO)c1` + O?
viscosity (288.15 K, x1 = 0.7595): 173 mPa·s; viscosity (288.15 K, x1 = 0.8082): 194 mPa·s; viscosity (288.15 K, x1 = 0.842): 217 mPa·s; viscosity (288.15 K, x1 = 0.8991): 243 mPa·s; viscosity (288.15 K, x1 = 0.9102): 248 mPa·s; viscosity (293.15 K, x1 = 0.7595): 126 mPa·s; viscosity (293.15 K, x1 = 0.8082): 145 mPa·s; viscosity (293.15 K, x1 = 0.842): 157 mPa·s; viscosity (293.15 K, x1 = 0.8991): 178 mPa·s; viscosity (293.15 K, x1 = 0.9102): 184 mPa·s; viscosity (298.15 K, x1 = 0.8082): 108.2 mPa·s; viscosity (298.15 K, x1 = 0.8991): 132 mPa·s; viscosity (298.15 K, x1 = 0.9102): 136 mPa·s; viscosity (303.15 K, x1 = 0.7595): 70.4 mPa·s; viscosity (303.15 K, x1 = 0.8082): 80.5 mPa·s; viscosity (303.15 K, x1 = 0.842): 88.5 mPa·s; viscosity (303.15 K, x1 = 0.8991): 101.3 mPa·s; viscosity (303.15 K, x1 = 0.9102): 103.7 mPa·s; viscosity (308.15 K, x1 = 0.7595): 57.5 mPa·s; viscosity (308.15 K, x1 = 0.8082): 65.2 mPa·s; viscosity (308.15 K, x1 = 0.842): 68.6 mPa·s; viscosity (308.15 K, x1 = 0.9102): 78.5 mPa·s; viscosity (313.15 K, x1 = 0.7595): 45.1 mPa·s; viscosity (313.15 K, x1 = 0.8082): 48.5 mPa·s; viscosity (313.15 K, x1 = 0.842): 50.9 mPa·s; viscosity (313.15 K, x1 = 0.8991): 54 mPa·s; viscosity (313.15 K, x1 = 0.9102): 54.9 mPa·s; viscosity (318.15 K, x1 = 0.7595): 36.6 mPa·s; viscosity (318.15 K, x1 = 0.8082): 38.9 mPa·s; viscosity (318.15 K, x1 = 0.8991): 42.9 mPa·s; viscosity (318.15 K, x1 = 0.9102): 43.6 mPa·s; viscosity (323.15 K, x1 = 0.7595): 30.3 mPa·s; viscosity (323.15 K, x1 = 0.842): 33.2 mPa·s; viscosity (323.15 K, x1 = 0.9102): 35.1 mPa·s; viscosity (328.15 K, x1 = 0.7595): 25.1 mPa·s; viscosity (328.15 K, x1 = 0.842): 28.2 mPa·s; viscosity (328.15 K, x1 = 0.8991): 30.2 mPa·s; viscosity (333.15 K, x1 = 0.7595): 21.1 mPa·s; viscosity (333.15 K, x1 = 0.8082): 22.2 mPa·s; viscosity (333.15 K, x1 = 0.842): 22.7 mPa·s; viscosity (333.15 K, x1 = 0.9102): 23.9 mPa·s

Which results are given for `CC(=O)[O-].Cn1cc[n+](CCO)c1` + O?
viscosity (288.15 K, x1 = 0.8317): 73.1 mPa·s; viscosity (288.15 K, x1 = 0.8632): 95.7 mPa·s; viscosity (288.15 K, x1 = 0.8712): 102.6 mPa·s; viscosity (288.15 K, x1 = 0.8818): 112.8 mPa·s; viscosity (288.15 K, x1 = 0.9003): 127.4 mPa·s; viscosity (293.15 K, x1 = 0.8317): 54.2 mPa·s; viscosity (293.15 K, x1 = 0.8632): 71.8 mPa·s; viscosity (293.15 K, x1 = 0.8712): 74.7 mPa·s; viscosity (293.15 K, x1 = 0.8818): 83.4 mPa·s; viscosity (298.15 K, x1 = 0.8632): 53.8 mPa·s; viscosity (298.15 K, x1 = 0.8818): 62 mPa·s; viscosity (298.15 K, x1 = 0.9003): 69.5 mPa·s; viscosity (303.15 K, x1 = 0.8632): 41.9 mPa·s; viscosity (303.15 K, x1 = 0.8818): 47.1 mPa·s; viscosity (303.15 K, x1 = 0.9003): 52.7 mPa·s; viscosity (308.15 K, x1 = 0.8632): 32.2 mPa·s; viscosity (308.15 K, x1 = 0.8712): 33.3 mPa·s; viscosity (308.15 K, x1 = 0.9003): 40.8 mPa·s; viscosity (313.15 K, x1 = 0.8317): 20.52 mPa·s; viscosity (313.15 K, x1 = 0.9003): 32.2 mPa·s; viscosity (318.15 K, x1 = 0.8317): 16.8 mPa·s; viscosity (318.15 K, x1 = 0.8632): 20.74 mPa·s; viscosity (318.15 K, x1 = 0.8712): 21.56 mPa·s; viscosity (318.15 K, x1 = 0.8818): 23.58 mPa·s; viscosity (318.15 K, x1 = 0.9003): 25.9 mPa·s; viscosity (323.15 K, x1 = 0.8317): 13.96 mPa·s; viscosity (323.15 K, x1 = 0.8632): 17.07 mPa·s; viscosity (323.15 K, x1 = 0.8712): 17.7 mPa·s; viscosity (323.15 K, x1 = 0.9003): 21.33 mPa·s; viscosity (328.15 K, x1 = 0.8317): 11.73 mPa·s; viscosity (328.15 K, x1 = 0.8632): 14.25 mPa·s; viscosity (328.15 K, x1 = 0.8818): 16.02 mPa·s; viscosity (328.15 K, x1 = 0.9003): 17.64 mPa·s; viscosity (333.15 K, x1 = 0.8317): 9.95 mPa·s; viscosity (333.15 K, x1 = 0.8632): 12.06 mPa·s; viscosity (333.15 K, x1 = 0.8712): 12.4 mPa·s
